Assay results taken from ChEMBL document CHEMBL3301472, “MMV Malaria Box HIV and cytotoxicity screening”.

Legend:
[1] = MMV: MTT Cytotoxicity Assay Day 7 pi of Assay #6 (compound washed out Day 1 pi), U87-CD4-CCR5 cells, % cell death @ 5mM compound; format: toxicity, cell-based; conditions: human, u87-cd4-ccr5, 5000 µM
[2] = system: Human immunodeficiency virus 1; assay: MMV: HIV JRFL CCR5-tropic replication-competent virus, virus & compound washed out Day 1 pi, P24 ELISA Day 7 pi, U87-CD4-CCR5, % inhibition at 5 mM compound; format: functional; design: dose or concentration left out as unconfirmed; conditions: Human immunodeficiency virus 1, JR-FL
[3] = MMV: MTT Cytotoxicity Assay Day 7 pi of Assay #11 (NO washout), U87-CD4-CXCR4 cells, % cell death @ 5mM compound; format: toxicity, cell-based; conditions: human, u87-cd4-cxcr4, 5000 µM
[4] = MMV: MTT Cytotoxicity Assay Day 3 pi, U87-CD4-CCR5 cells, % cell death @ 5mM compound; format: toxicity, cell-based; conditions: human, u87-cd4-ccr5, 5000 µM
[5] = MMV: MTT Cytotoxicity Assay Day 7 pi of Assay #10 (NO washout), U87-CD4-CCR5 cells, % cell death @ 5mM compound; format: toxicity, cell-based; conditions: human, u87-cd4-ccr5, 5000 µM
[6] = MMV: MTT Cytotoxicity Assay Day 7 pi of Assay #7 (compound washed out Day 1 pi), U87-CD4-CXCR4 cells, % cell death @ 5mM compound; format: toxicity, cell-based; conditions: human, u87-cd4-cxcr4, 5000 µM
[7] = MMV: MTT Cytotoxicity Assay Day 3 pi, U87-CD4-CXCR4 cells, % cell death @ 5mM compound; format: toxicity, cell-based; conditions: human, u87-cd4-cxcr4, 5000 µM

SMILES | % Cell Death [1] | inhibition [2] | % Cell Death [3] | % Cell Death [4] | % Cell Death [5] | % Cell Death [6] | % Cell Death [7]
CN1CCN(c2ncnc3c2[nH]c2ccc(Cl)cc23)CC1 | 29 | 10% | 1 | -11 | 31 | -25 | 27
Cc1cc(C)c2nc(N3CCC(C(=O)NCCCN4CCC(N5CCCCC5)CC4)CC3)sc2c1 | 5 | 1% | -37 | -8 | -39 | -20 | 8
CCCCCCc1cc2cc(-c3nc4ccccc4[nH]3)c(=Nc3ccccc3C)oc2cc1O | 15 | 4% | 53 | 31 | 44 | -2 | 25
Cc1cccc(Nc2nc(N)c3ccccc3n2)c1.Cl | 28 | 5% | 71 | 7 | 43 | -15 | 43
COc1ccc(-c2nc(NC(=O)CS(=O)(=O)c3ccc(F)cc3)sc2C)cc1 | -7 | -1% | 71 | 41 | 10 | 9 | 29
CC(O)(c1ccc(Cl)cc1)C(CN1CCCCC1)c1ccccc1.Cl (configuration not stated) | 24 | 3% | -5 | -11 | 19 | -24 | 3
Cc1sc2ncnc(Sc3nc4ccccc4[nH]3)c2c1C | -6 | -1% | -15 | 16 | 27 | -5 | 18
CC(C)CNC(=O)c1c(N)n(CCc2ccccc2F)c2nc3ccccc3nc12 | 4 | 3% | 99 | 0 | 35 | -6 | 47
COc1ccc(-c2nc(N3CCN(C(=O)C4CCCCC4)CC3)c3c4c(sc3n2)CCCC4)cc1 | -3 | 5% | 104 | 2 | 113 | -26 | 46
CC(=O)c1ccc(NC(=O)CSc2nc(-c3ccccc3Cl)ns2)cc1 | 7 | 7% | -33 | 57 | 41 | 8 | 51
c1ccc2c(NCCc3c[nH]c4ccccc34)c3ccccc3nc2c1 | 29 | 5% | 42 | 64 | 20 | -4 | 62
Cc1cc(NC(=O)c2ccc(-c3ccccc3)cc2)no1 | -24 | 4% | -1 | -16 | 32 | -27 | 43
Cl.Clc1cc(Br)ccc1-c1ccc(CNCC2CCNCC2)o1 | -9 | 4% | -60 | 15 | 0 | 4 | 27
CCOc1cccc2sc(N(Cc3cccnc3)C(=O)C3CCCCC3)nc12 | 34 | 4% | 52 | 2 | 65 | 8 | 9
Cc1cc(Nc2cccc(F)c2)nc(NCc2ccccc2)n1 | 6 | 5% | -41 | 21 | 20 | -12 | 33
CCCCOC(=O)c1ccc(Nc2cc(C)nc3ccc(OC)cc23)cc1 | 16 | 0% | -45 | 32 | 21 | -10 | 30
Oc1ccc(C(=C(Cl)Cl)c2ccc(O)cc2)cc1 | -14 |  | 103 | 80 | 84 | 36 | 75
Cc1sc(NC(=O)c2ccccc2)c(C(c2cccs2)N2CCN(c3ccccc3)CC2)c1C (configuration not stated) | -19 |  | -15 | -1 | 95 | 4 | 45

SMILES | % Cell Death [1] | inhibition [2] | % Cell Death [3] | % Cell Death [4] | % Cell Death [5] | % Cell Death [6] | % Cell Death [7]
CCOc1cccc(C(=O)Nc2ccc(-c3nc4ccccc4[nH]3)cc2)c1 | 8 |  | 65 | -33 | 6 | -23 | 46
CCOc1ccccc1CNC(=O)C1c2ccccc2C(=O)N(CC(C)C)C1c1cccs1 (configuration not stated) | 2 |  | 4 | -26 | 20 | -26 | 12
O=C(Nc1ccc(Cl)c(Cl)c1)Nc1ccc(Cl)c(Cl)c1 | 54 |  | 116 | 82 | 89 | 82 | 59
CCN(CC)CCNc1ncnc2c1[nH]c1ccc(Br)cc12 | -1 |  | -18 | -7 | 15 | -18 | 24
CC(C)c1ccc(CNCC(O)c2ccccc2)cc1.Cl (configuration not stated) | -1 |  | 3 | -53 | 14 | -18 | 29
Fc1ccc2[nH]c3c(NCCCN4CCOCC4)ncnc3c2c1 | 34 |  | 49 | -1 | 38 | 7 | 36
COc1nc(Nc2ccc(C(C)C)cc2)nc(OC)n1 | 33 |  | 24 | -1 | 33 | -7 | 32
CCOc1ccccc1CN1CCc2nc3cc(C(C)(C)C)nn3c(O)c2C1 | -7 |  | 98 | 100 | 95 | 3 | 21
COc1ccc(C(=O)NC(c2ccc(Cl)cc2Cl)c2cc(Cl)c3cccnc3c2O)cc1 (configuration not stated) | 1 |  | 102 | 42 | 84 | 18 | 58
COc1cc(C(=O)Nc2ccc(-c3nc4ccccc4[nH]3)cc2)cc(OC)c1OC | -4 |  | -49 | -27 | 29 | -7 | 29
CCOc1ccc(Nc2ccnc3cc(Cl)ccc23)cc1 | 20 |  | -19 | 35 | 72 | 47 | 78
COC(=O)c1ccc(Cl)c2c1C1C=CCC1C(c1cccc3ccccc13)N2 (configuration not stated) | -5 |  | -34 | -6 | -21 | -20 | 40
CCCCNCC(O)(c1ccc(Cl)cc1)c1ccc(Cl)cc1 | 23 |  | 27 | 16 | 11 | -18 | 29
Cc1ccc(Cl)cc1N1CCN(CCCNC(=O)C2CCN(c3nc4ccccc4[nH]3)CC2)CC1 | 31 |  | 57 | 86 | 91 | -32 | 6
Cc1cc(C=C2SC(=Nc3ccccc3)N(C3CCCC3)C2=O)c(C)n1-c1ccc(Cl)cc1 | 8 |  | 90 | 96 | 140 | 36 | 65
COc1ccc(OC)c(C2C3=C(CC(C)(C)CC3=O)N(c3ccc(Cl)c(Cl)c3)C3=C2C(=O)CC(C)(C)C3)c1 | 28 |  | 3 | 9 | -4 | 5 | 31
O=C(NC1CCCCC1)C(c1cccs1)N(CCc1ccccc1)C(=O)c1ccco1 (configuration not stated) | 90 |  | 97 | 93 | 90 | 61 | 54
O=C(Nc1ccc(-c2nc3ccccc3[nH]2)cc1)c1ccc(Cl)c(Cl)c1 | -9 |  | -46 | 38 | 33 | 20 | 39
